Laboratory results: US20160237044A1, “SUBSTITUTED PHENYLALANINE DERIVATIVES” (BAYER PHARMA AKTIENGESELLSCHAFT, priority 2013, published 2016)
Structures can show the parent of a compound that is named as a salt.

Experiments:
[1] = molecular target: T1, human factor XIa (Homo sapiens, UniProt P03951); assay: Measurement of FXIa inhibition (fluorogenic peptide substrate Boc-Glu(OBzl)-Ala-Arg-AMC); assay type: biochemical; settings: factor XIa from Kordia, 15 min preincubation, 30 min at 22° C., fluorescence; read-out: IC50
T1 construct: purchased Kordia
Method: a.1) Measurement of FXIa Inhibition
The factor XIa inhibition of the substances according to the invention is determined using a biochemical test system which utilizes the reaction of a peptidic factor XIa substrate to determine the enzymatic activity of human factor XIa. Here, factor XIa cleaves from the peptic factor XIa substrate the C-terminal aminomethylcoumarin (AMC), the fluorescence of which is measured. The determinations are carried out in microtitre plates.
(§1) In each case 1 μl of the diluted substance solutions is placed into the wells of white microtitre plates from Greiner (384 wells). […] After 15 min of incubation, the enzyme reaction is started by addition of 20 μl of the factor XIa substrate Boc-Glu(OBzl)-Ala-Arg-AMC dissolved in assay buffer (10 μM in assay buffer) from Bachem, the mixture is incubated at room temperature (22° C.) for 30 min and fluorescence is then measured (excitation: 360 nm, emission: 460 nm). The measured emissions of the test batches with test substance are compared to those of control batches without test substance (only dimethyl sulphoxide instead of test substance in dimethyl sulphoxide), and IC50 values are calculated from the concentration/activity relationships.

[2] = test system: plasma; assay: Determination of anticoagulatory activity: activated partial thromboplastin time (aPTT) in plasma; assay type: biochemical, human; settings: concentration of test substance which brings about a 1.5-fold extension of the aPTT, C.K. Prest kit, 37° C.
Method: a.4) Determination of Anticoagulatory Activity
The anticoagulatory activity of the test substances is determined in vitro in human and animal plasma (for example mouse, rat, rabbit, pig and dog plasma). To this end, blood is drawn off in a mixing ratio of sodium citrate/blood of 1:9 using a 0.11 molar sodium citrate solution as receiver. Immediately after the blood has been drawn off, it is mixed thoroughly and centrifuged at about 4000 g for 15 minutes. The supernatant is pipetted off.
The activated partial thromboplastin time (aPTT) is determined in the presence of varying concentrations of test substance or the corresponding solvent using a commercial test kit (C.K. Prest from Diagnostica Stago). The test compounds are incubated with the plasma and the PTT reagent (cephalin, kaolin) at 37° C. for 3 minutes. Coagulation is then started by addition of a 25 mM aqueous calcium chloride solution, and the time when coagulation occurs is determined. The concentration of test substance which brings about a 1.5-fold extension of the aPTT is determined.

[3] = molecular target: T2, human plasmin (Homo sapiens, UniProt P00747); assay: Measurement of plasmin inhibition (fluorogenic peptide substrate MeOSuc-Ala-Phe-Lys-AMC); assay type: biochemical; settings: plasmin from Kordia, 15 min preincubation, 30 min at 22° C., fluorescence
T2 construct: purchased Kordia
Method: a.6) Measurement of Plasmin Inhibition
The plasmin inhibition of the inventive substances is determined using a biochemical test system which utilizes the reaction of a peptidic plasmin substrate to determine the enzymatic activity of human plasmin. Here, plasmin cleaves from the peptic plasmin substrate the C-terminal aminomethylcoumarin (AMC), the fluorescence of which is measured. The determinations are carried out in microtitre plates.
as §1, with “Test substances are dissolved in dimethyl sulphoxide and serially diluted in dimethyl sulphoxide (3000 μM to 0.0078 μM; resulting final concentrations in the test: 50 μM to 0.00013 μM). In” for “In”, “plasmin” for “factor XIa”, “MeOSuc-Ala-Phe-Lys-AMC” for “Boc-Glu(OBzl)-Ala-Arg-AMC”, “(150” for “(10”

T1 sequence (P03951 388-625 limits assumed): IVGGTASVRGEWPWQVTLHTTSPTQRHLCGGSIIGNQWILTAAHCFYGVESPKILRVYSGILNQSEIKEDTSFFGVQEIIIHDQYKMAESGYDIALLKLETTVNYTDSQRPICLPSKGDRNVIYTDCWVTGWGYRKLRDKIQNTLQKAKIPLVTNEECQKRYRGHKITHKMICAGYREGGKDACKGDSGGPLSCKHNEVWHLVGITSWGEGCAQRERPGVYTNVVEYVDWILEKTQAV
T1 sequence (P03951 19-387 partner limits assumed): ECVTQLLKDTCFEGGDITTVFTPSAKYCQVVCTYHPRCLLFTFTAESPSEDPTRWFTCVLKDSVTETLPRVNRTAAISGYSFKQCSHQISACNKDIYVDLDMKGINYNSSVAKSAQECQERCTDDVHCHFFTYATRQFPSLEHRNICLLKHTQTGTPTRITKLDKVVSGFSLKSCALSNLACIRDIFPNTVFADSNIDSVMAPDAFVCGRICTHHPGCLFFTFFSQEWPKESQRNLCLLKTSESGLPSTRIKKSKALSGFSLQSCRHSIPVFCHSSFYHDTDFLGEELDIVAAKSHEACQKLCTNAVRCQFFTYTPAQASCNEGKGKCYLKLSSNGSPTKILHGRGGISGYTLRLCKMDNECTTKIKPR
T2 sequence (P00747 581-810 limits assumed): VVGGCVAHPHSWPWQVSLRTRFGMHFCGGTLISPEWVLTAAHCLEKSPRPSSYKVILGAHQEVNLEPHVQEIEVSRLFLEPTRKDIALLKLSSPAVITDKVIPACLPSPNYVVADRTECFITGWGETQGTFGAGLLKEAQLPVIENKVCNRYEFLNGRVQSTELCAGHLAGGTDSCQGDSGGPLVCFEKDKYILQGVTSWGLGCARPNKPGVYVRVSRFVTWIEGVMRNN
T2 sequence (P00747 97-580 partner limits assumed): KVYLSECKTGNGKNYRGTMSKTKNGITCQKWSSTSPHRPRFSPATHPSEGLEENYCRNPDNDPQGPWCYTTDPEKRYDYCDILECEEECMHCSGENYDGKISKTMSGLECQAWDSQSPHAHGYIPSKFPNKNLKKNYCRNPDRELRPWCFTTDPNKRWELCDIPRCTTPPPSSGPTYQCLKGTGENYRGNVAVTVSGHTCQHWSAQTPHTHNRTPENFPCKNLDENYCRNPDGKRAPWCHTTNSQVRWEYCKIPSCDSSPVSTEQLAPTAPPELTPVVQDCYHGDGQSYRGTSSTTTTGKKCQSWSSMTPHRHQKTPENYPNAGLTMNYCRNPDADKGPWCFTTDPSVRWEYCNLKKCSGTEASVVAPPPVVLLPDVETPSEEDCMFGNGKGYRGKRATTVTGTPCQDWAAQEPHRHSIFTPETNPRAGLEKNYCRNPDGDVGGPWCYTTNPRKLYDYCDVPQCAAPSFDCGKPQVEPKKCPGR

SMILES	IC50 [1] [nM]	IC50 [3] [nM]	Concentration for 1.5-fold aPTT extension [2] [µmol/L]
Cc1cc(S(=O)(=O)NC2CC2)ccc1-c1ccc(C[C@H](NC(=O)[C@H]2CC[C@H](CN)CC2)C(=O)Nc2ccc3c(=O)[nH][nH]c3c2)cc1 [Example 12, trans-4-(Aminomethyl)-N-{(2S)-3-[4′-(cyclopropylsulphamoyl)-2′-methylbiphenyl-4-yl]-1-oxo-1-[(3-oxo-2,3-dihydro-1H-indazol-6-yl)amino]propan-2-yl}cyclohexanecarboxamide hydrochloride]	2.7	30	0.04
Cc1cc(S(=O)(=O)N2CCCC2)ccc1-c1ccc(C[C@H](NC(=O)[C@H]2CC[C@H](CN)CC2)C(=O)Nc2ccc3c(=O)[nH][nH]c3c2)cc1 [Example 15, trans-4-(Aminomethyl)-N-{(2S)-3-[2′-methyl-4′-(pyrrolidin-1-ylsulphonyl)biphenyl-4-yl]-1-oxo-1-[(3-oxo-2,3-dihydro-1H-indazol-6-yl)amino]propan-2-yl}cyclohexanecarboxamide hydrochloride]	2.8	23	0.09
CC(=O)Nc1ccc(-c2ccc(C[C@H](NC(=O)[C@H]3CC[C@H](CN)CC3)C(=O)Nc3ccc(-c4nn[nH]n4)cc3)cc2)cc1F [Example 26, trans-N-[(2S)-3-(4′-Acetamido-3′-fluorobiphenyl-4-yl)-1-oxo-1-{[4-(2H-tetrazol-5-yl)phenyl]-amino}propan-2-yl]-4-(aminomethyl)cyclohexanecarboxamide hydrochloride]	4.7	–	0.4
COc1ccc(-c2ccc(C[C@H](NC(=O)[C@H]3CC[C@H](CN)CC3)C(=O)Nc3ccc(-c4nn[nH]n4)cc3)cc2)c(C(F)(F)F)c1 [Example 27, trans-4-(Aminomethyl)-N-[(2S)-3-[4′-methoxy-2′-(trifluoromethyl)biphenyl-4-yl]-1-oxo-1-{[4-(2H-tetrazol-5-yl)phenyl]amino}propan-2-yl]cyclohexanecarboxamide hydrochloride]	4.5	–	0.21
CN(C)C1CCC(NS(=O)(=O)c2ccc(-c3ccc(C[C@H](NC(=O)[C@H]4CC[C@H](CN)CC4)C(=O)Nc4ccc5[nH]c(=O)[nH]c5c4)cc3)c(C(F)(F)F)c2)CC1 (stereo partly drawn) [Example 28, trans-4-(Aminomethyl)-N-{(2S)-3-[4′-{[4-(dimethylamino)cyclohexyl]sulphamoyl}-2′-(trifluoromethyl)biphenyl-4-yl]-1-oxo-1-[(2-oxo-2,3-dihydro-1H-benzimidazol-5-yl)amino]propan-2-yl}cyclohexanecarboxamide hydrochloride]	5.2	–	0.06

Compounds with a lower IC50 [1], results first:

IC50 [1] [nM]	IC50 [3] [nM]	SMILES	Concentration for 1.5-fold aPTT extension [2] [µmol/L]
2.5	–	NC[C@H]1CC[C@H](C(=O)N[C@@H](Cc2ccc(-c3ccc(N4CCOCC4=O)cc3)cc2)C(=O)Nc2ccc(-c3nn[nH]n3)cc2)CC1 [Example 25, trans-4-(Aminomethyl)-N-[(2S)-1-oxo-3-[4′-(3-oxomorpholin-4-yl)biphenyl-4-yl]-1-{[4-(2H-tetrazol-5-yl)phenyl]amino}propan-2-yl]cyclohexanecarboxamide hydrochloride]	0.36
1.5	–	NC[C@H]1CC[C@H](C(=O)N[C@@H](Cc2ccc(-c3ccc(S(N)(=O)=O)cc3)cc2)C(=O)Nc2ccc(-c3nnc(Cl)[nH]3)cc2)CC1 [Example 22, trans-4-(Aminomethyl)-N-[(2S)-1-{[4-(3-chloro-4H-1,2,4-triazol-5-yl)phenyl]amino}-1-oxo-3-(4′-sulphamoylbiphenyl-4-yl)propan-2-yl]cyclohexanecarboxamide hydrochloride]	0.25
1.1	–	Cc1cc(C#N)ccc1-c1ccc(C[C@H](NC(=O)[C@H]2CC[C@H](CN)CC2)C(=O)Nc2ccc(-c3nn[nH]n3)cc2)cc1 [Example 23, trans-4-(Aminomethyl)-N-[(2S)-3-(4′-cyano-2′-methylbiphenyl-4-yl)-1-oxo-1-{[4-(2H-tetrazol-5-yl)phenyl]amino}propan-2-yl]cyclohexanecarboxamide hydrochloride]	0.27
0.9	–	CS(=O)(=O)c1ccc(-c2ccc(C[C@H](NC(=O)[C@H]3CC[C@H](CN)CC3)C(=O)Nc3ccc(-c4nn[nH]n4)cc3)cc2)c(C(F)(F)F)c1 [Example 21, trans-4-(Aminomethyl)-N-[(2S)-3-[4′-(methylsulphonyl)-2′-(trifluoromethyl)biphenyl-4-yl]-1-oxo-1-{[4-(2H-tetrazol-5-yl)phenyl]amino}propan-2-yl]cyclohexanecarboxamide hydrochloride]	0.23
0.4	–	Cc1cc(S(=O)(=O)N(C)C)ccc1-c1ccc(C[C@H](NC(=O)[C@H]2CC[C@H](CN)CC2)C(=O)Nc2ccc(-c3nn[nH]n3)c(F)c2)cc1 [Example 24, trans-4-(Aminomethyl)-N-[(2S)-3-[4′-(dimethylsulphamoyl)-2′-methylbiphenyl-4-yl]-1-{[3-fluoro-4-(2H-tetrazol-5-yl)phenyl]amino}-1-oxopropan-2-yl]cyclohexanecarboxamide hydrochloride]	0.27
